Consider seven compounds from patent US20240228488A1 (TAKEDA PHARMACEUTICAL COMPANY LIMITED, priority 2021, published 2024).

In assay [1] the target is T1, plasma kallikrein (Homo sapiens, UniProt P03952).
T1 construct: from tissue
Description: Neat human plasma assay, FXIIa contact pathway-activated, PFR-AMC substrate. In kind it is biochemical. The settings on record: citrated human plasma 78% final, 10 nM human FXIIa, 100 μM PFR-AMC; read-out: Human Plasma Assay: IC90. An outline of the steps: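 Compound inhibition of plasma kallikrein measured as PFR-AMC (100 μM) cleavage rate over 5 min at room temperature in 78% citrated human plasma activated with 10 nM FXIIa (Tris pH 7.5 buffer). IC50/IC90 from 4-parameter fit of rate versus inhibitor concentration.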

In assay [2] the target is human activated kallikrein enzyme (Homo sapiens, UniProt P03952). The assay is described as follows: Plasma kallikrein inhibition, fluorogenic PFR-AMC substrate, 500 pM activated kallikrein format. In kind it is biochemical. The settings on record: 500 pM activated kallikrein, 300 uM PFR-AMC, 30 min preincubation, 10 min reaction; read-out: Primary Dose Response Assay: Average EC50. An outline of the steps:
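Fluorescence (ex 380/em 460 nm) is read after 10 min of 300 uM PFR-AMC turnover by 500 pM enzyme at RT. Compounds sit with enzyme for 30 min beforehand. Buffer is Tris (pH 7.5) with EDTA, NaCl, PEG-400 and Triton X-100; EC50 values are banded.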

T1 sequence (P03952 391-638 limits assumed): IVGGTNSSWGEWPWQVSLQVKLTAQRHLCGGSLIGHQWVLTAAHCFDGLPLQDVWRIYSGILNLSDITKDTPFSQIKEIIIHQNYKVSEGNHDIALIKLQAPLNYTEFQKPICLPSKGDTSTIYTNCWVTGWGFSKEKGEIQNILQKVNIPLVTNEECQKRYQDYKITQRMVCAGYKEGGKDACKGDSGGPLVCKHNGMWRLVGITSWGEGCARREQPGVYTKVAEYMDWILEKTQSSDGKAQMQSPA
T1 sequence (P03952 20-390 partner limits assumed): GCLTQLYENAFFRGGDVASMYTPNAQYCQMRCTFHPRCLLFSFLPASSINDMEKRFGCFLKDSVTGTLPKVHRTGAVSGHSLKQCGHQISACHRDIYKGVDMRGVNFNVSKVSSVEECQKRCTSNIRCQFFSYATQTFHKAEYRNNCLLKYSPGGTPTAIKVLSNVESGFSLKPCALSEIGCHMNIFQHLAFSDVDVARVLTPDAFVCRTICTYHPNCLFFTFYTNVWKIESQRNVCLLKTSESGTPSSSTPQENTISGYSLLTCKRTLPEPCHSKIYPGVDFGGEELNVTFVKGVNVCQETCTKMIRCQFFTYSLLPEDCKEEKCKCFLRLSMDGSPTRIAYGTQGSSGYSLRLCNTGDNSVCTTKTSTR
human activated kallikrein enzyme, sequence (P03952 391-638 limits assumed): as the sequence (P03952 391-638 limits assumed) above
human activated kallikrein enzyme, sequence (P03952 20-390 partner limits assumed): as the sequence (P03952 20-390 partner limits assumed) above

Take `Cc1ccnc([C@H]2C[C@@H]2C(=O)Nc2cncc(NCc3cn4cc(C5CC5)cc(N5CC(=O)N(C)C5=O)c4n3)n2)n1` (racemic) [Example 526, rac-(1S*,2S*)-N-(6-(((6-cyclopropyl-8-(3-methyl-2,4-dioxoimidazolidin-1-yl)imidazo[1,2-a]pyridin-2-yl)methyl)amino)pyrazin-2-yl)-2-(4-methylpyrimidin-2-yl)cyclopropane-1-carboxamide]: the 90% effect concentration (IC90) in assay [1] was 400 to 1500 nM. Also, the concentration for a half-maximal effect (EC50) in assay [2] is under 1 nM.
Regarding `O=C(O)CCc1cc(C2CC2)cn2cc(CNc3ccnc(NC(=O)[C@H]4C[C@@H]4c4cccc(Cl)c4)c3)nc12` [Example 290, 3-(2-(((2-((1S,2S)-2-(3-chlorophenyl)cyclopropane-1-carboxamido)pyridin-4-yl)amino)methyl)-6-cyclopropylimidazo[1,2-a]pyridin-8-yl)propanoic acid], the 90% effect concentration (IC90) in assay [1] was in the range of 1500 to 10000 nM. Moreover, the concentration for a half-maximal effect (EC50) in assay [2] was under 1 nM.
The like results for `Cc1ccnc([C@@]2(F)C[C@@H]2C(=O)Nc2cc(N[C@H](C)c3cn4cc(C5CC5)cc(N5CC(=O)N(C)C5=O)c4n3)nc(C)n2)n1` (racemic) [Example 546, rac-(1S*,2S*)—N-(6-(((R)-1-(6-cyclopropyl-8-(3-methyl-2,4-dioxoimidazolidin-1-yl)imidazo[1,2-a]pyridin-2-yl)ethyl)amino)-2-methylpyrimidin-4-yl)-2-fluoro-2-(4-methylpyrimidin-2-yl)cyclopropane-1-carboxamide] were, in that order, 400 to 1500 nM and under 1 nM.
On to `O=C(Nc1cc(NCc2cn3cc(C4CC4)cc(N4CCN5CCCC5C4)c3n2)ncn1)[C@H]1C[C@@H]1c1cccc(Cl)c1` (stereo partly drawn) [Example I-200, (1S,2S)-2-(3-chlorophenyl)-N-(6-(((6-cyclopropyl-8-(hexahydropyrrolo[1,2-a]pyrazin-2(1H)-yl)imidazo[1,2-a]pyridin-2-yl)methyl)amino)pyrimidin-4-yl)cyclopropane-1-carboxamide], for which the concentration for an effect of 90% (IC90) in assay [1] lay in the range of 400 to 1500 nM. In assay [2], the half-maximal effective concentration (EC50) is under 1 nM.
`Cc1ccnc([C@H]2C[C@@H]2C(=O)Nc2cc(Cc3cn4cc(C5CC5)cc(N5CC(=O)N(C)C5=O)c4n3)ncn2)n1` (racemic) [Example 620, rac-(1S*,2S*)—N-(6-((6-cyclopropyl-8-(3-methyl-2,4-dioxoimidazolidin-1-yl)imidazo[1,2-a]pyridin-2-yl)methyl)pyrimidin-4-yl)-2-(4-methylpyrimidin-2-yl)cyclopropane-1-carboxamide]: the IC90 in assay [1] lay within 400 to 1500 nM. Also, the concentration for a half-maximal effect (EC50) in assay [2] lay within 1 to 10 nM.
The corresponding values for `O=C(Nc1cc(NCc2cn3cc(C4CC4)ccc3n2)ccn1)[C@H]1C[C@@H]1c1cc(Cl)ccc1[N+](=O)[O-]` (racemic) [Example I-223, rac-(1S*,2S*)-2-(5-chloro-2-nitrophenyl)-N-(4-(((6-cyclopropylimidazo[1,2-a]pyridin-2-yl)methyl)amino)pyridin-2-yl)cyclopropane-1-carboxamide] are over 48000 nM and under 1 nM.
`Cc1ccnc([C@H]2C[C@@H]2C(=O)Nc2cc(NCc3cn4cc(C5CC5)cc(N5CC(=O)N(C)C5=O)c4n3)nc(C3(O)COC3)n2)n1` (racemic) [Example 113, rac-(1S*,2S*)—N-(6-(((6-cyclopropyl-8-(3-methyl-2,4-dioxoimidazolidin-1-yl)imidazo[1,2-a]pyridin-2-yl)methyl)amino)-2-(3-hydroxyoxetan-3-yl)pyrimidin-4-yl)-2-(4-methylpyrimidin-2-yl)cyclopropane-1-carboxamide]: the IC90 in assay [1] is 400 to 1500 nM. Besides, the EC50 in assay [2] is under 1 nM.
